Among the data in patent US12600727B2, “Treatment of infections of toxoplasma gondii and closely related parasites” (WASHINGTON UNIVERSITY, priority 2018, dated 2026) are EC50 values, retold here.

Test [1] deals with Toxoplasma gondii tachyzoites (ME49-FLUC, type 2). Kind of test: T. gondii ME49-FLUC tachyzoite growth inhibition in HFF, luciferase assay. Particulars: T. gondii ME49-FLUC (type 2) tachyzoites in HFF. The class given is cell-based. As for the experimental part:
Toxoplasma gondii tachyzoites (ME49-FLUC, type 2) (27) were serially passaged in human foreskin fibroblasts (HFF) cultured in complete DMEM medium (DMEM supplemented with 10% fetal bovine serum (FBS), glutamine (10 mM) and gentamycin (10 μg/mL)). For each assay described, infected monolayers were scraped, needle passed (23 ga), and parasites were separated from host cell debris using a three (3) micron pore polycarbonate filter. HeLa cells were cultured in MEM media that contained 10% FBS, 4 mM L-glutamine and 10 mM HEPES solution. Cell culture and assays were conducted using a 37° C. incubator with 5% CO2. Cell cultures were negative for mycoplasma, as determined using the e-Myco plus kit (Intron Biotechnology).
White, clear bottom 96-well assay plates were set up as described above with the following modifications. Only the inner 60 wells were used for the assay in order to reduce variability that results from evaporation during incubation. Dilution of compound stock is as described above, with all wells containing a final concentration of 0.1% DMSO. DMSO (vehicle control) and pyrimethamine (2.5 μM, positive control) were included in the outside wells of all plates as controls. Liquid handling (serial dilutions, compound dilutions, cell feeding, plate-to-plate transfers, etc.) utilized a Dual Pod Biomek FX. Luciferase assays were performed using the integrated and automated platform (Beckman Coulter). The SAMI EX software was used to design and execute the screening assay and enabled efficient and uniform assay execution across all the assay plates.

For test [2], the system named is Neospora caninum parasites (NC-1 strain). Kind of test: N. caninum (NC-1, lac-Z) growth inhibition in HFF, β-Gal assay. The class given is cell-based. Particulars: 72 h. As for the experimental part:
Neospora caninum parasites (NC-1 strain) expressing a lac-Z transgene (1) were serially passaged as tachyzoites in human foreskin fibroblasts cultured in DMEM supplemented with 10% fetal bovine serum (FBS), glutamine (10 mM) and gentamycin (10 μg/mL). Mature cultures were scraped, syringe passed using a 25 g needle to release parasites, filtered through a 3 micron polycarbonate filter to remove host cell debris and counted prior to each assay. All cultures were maintained in a 37° C. incubator with 5% CO2 and were verified mycoplasma free using the e-Myco plus Mycoplasma PCR detection kit (Boca Scientific).
Compounds were prepared as 10 mM stock in 100% DMSO. Pyrimethamine (positive control) and DMSO were included as controls in all plates and all replicates. The EC50 values were determined using a 10-point dose response curve using a 2-fold dilution series from 5.0 μM to 0.01 μM across the plate. Experiments were conducted in 96-well plates containing confluent HFF cells. Each assay plate was inoculated with 1×10^3 parasites (100 μL) containing 100 μL of 2× compound and incubated for 72 h prior to preparation for the j-Gal assay as described in Seeber, F. et al., Gene 169 (1996): 39-45, hereby incorporated by reference in its entirety and particularly in relation to the β-Gal assay protocol. Briefly, culture medium was replaced, wells rinsed with 200 μL of PBS followed by incubation with 50 μL of lysis buffer (100 mM HEPES, 1 mM MgSO4, 1% Triton X-100, 5 mM DTT) for 10 min at 50° C.
EC50 values determined from 10-point dose response curve (5 μM-0.01 μM) and presented as the average of three biological replicates. Linear regression and dose response inhibition (log ([compound]) vs normalized response-variable slope) were performed with Prism 8 for Mac (Graphpad Software, Inc.) and both the fits and data are shown in FIG. 1. Values represent the average of three biological replicates each with two internal replicates and are plotted as mean±S.E.M.

[3] abbreviates: N. caninum NC-1 lac-Z, 10-point dose response 5 μM-0.01 μM, average of three biological replicates, read-out: EC50.

Where two headings read alike, the source gives them in different places.

For `COc1ccc(NC(=O)N2CCCCN3[C@H](CN4CCN(C)CC4)[C@H](c4ccc(C#Cc5ccccc5)cc4)[C@@H]3C2)cc1` [Compound 1, (8R,9S,10S)-N-(4-methoxyphenyl)-10-((4-methylpiperazin-1-yl)methyl)-9-(4-(phenylethynyl)phenyl)-1,6-diazabicyclo[6.2.0]decane-6-carboxamide], the EC50 in test [1] is 0.425 µM. In test [1], `COc1ccc(NC(=O)N2CCCCN3[C@H](COCCC(=O)O)[C@H](c4ccc(C#Cc5ccccc5)cc4)[C@@H]3C2)cc1` [Compound 2, 3-(((8R,9R,10S)-6-((4-methoxyphenyl)carbamoyl)-9-(4-(phenylethynyl)phenyl)-1,6-diazabicyclo[6.2.0]decan-10-yl)methoxy)propanoic acid] registered an EC50 of 0.0643 µM. Consider `O=C(NC1CCC1)N1CCCCN2[C@H](CO)[C@H](c3ccc(C#Cc4ccccc4)cc3)[C@@H]2C1` [Compound 3, (8R,9R,10S)-N-cyclobutyl-10-(hydroxymethyl)-9-(4-(phenylethynyl)phenyl)-1,6-diazabicyclo[6.2.0]decane-6-carboxamide], for which the EC50 in test [1] is 2.58 µM. Turning to `COc1ccc(NC(=O)N2CCCCN3[C@H](CN(C)S(C)(=O)=O)[C@H](c4ccc(C#Cc5ccccc5)cc4)[C@@H]3C2)cc1` [Compound 4, (8R,9R,10S)-N-(4-methoxyphenyl)-10-((N-methylmethylsulfonamido)methyl)-9-(4-(phenylethynyl)phenyl)-1,6-diazabicyclo[6.2.0]decane-6-carboxamide], the response in test [1] was half-maximal at 0.0348 µM (EC50).

Take `COc1ccc(NC(=O)N2CCCCN3[C@H](CN(C)CCF)[C@H](c4ccc(C#Cc5ccccc5)cc4)[C@@H]3C2)cc1` [Compound 5, (8R,9S,10S)-10-(((2-fluoroethyl)(methyl)amino)methyl)-N-(4-methoxyphenyl)-9-(4-(phenylethynyl)phenyl)-1,6-diazabicyclo[6.2.0]decane-6-carboxamide]: a half-maximal effect in test [1] (EC50) was put at 0.0895 µM. For the molecule `COc1ccc(NC(=O)N2CCCCN3[C@@H](C2)[C@@H](c2ccc(C#Cc4ccccc4)cc2)[C@@H]3CN(C)S(C)(=O)=O)cc1` [Compound 6, (8R,9R,10R)-N-(4-methoxyphenyl)-10-((N-methylmethylsulfonamido)methyl)-9-(4-(phenylethynyl)phenyl)-1,6-diazabicyclo[6.2.0]decane-6-carboxamide], the EC50 worked out at 0.06 µM in test [2] (setting [3]) and 0.04 µM in test [1].

Regarding `COc1ccc(NC(=O)N2CCCCN3[C@H](CO)[C@H](c4ccc(C#CC5CC5)cc4)[C@@H]3C2)cc1` [Compound 7, (8R,9R,10S)-9-(4-(cyclopropylethynyl)phenyl)-10-(hydroxymethyl)-N-(4-methoxyphenyl)-1,6-diazabicyclo[6.2.0]decane-6-carboxamide], in test [1], the half-maximal effective concentration (EC50) stood at 1.61 µM.

For the molecule `COc1ccc(NC(=O)N2C[C@H](O)[C@H](O)CN3[C@H](CN(C)C)[C@H](c4ccc(C#Cc5ccccc5)cc4)[C@@H]3C2)cc1` [Compound 8, (3R,4S,8R,9S,10S)-10-((dimethylamino)methyl)-3,4-dihydroxy-N-(4-methoxyphenyl)-9-(4-(phenylethynyl)phenyl)-1,6-diazabicyclo[6.2.0]decane-6-carboxamide], the EC50 in test [2] (setting [3]) is 0.03 µM; in test [1] it was 0.0393 µM.

As for `COC[C@@H]1[C@H](c2ccc(C#Cc3ccccc3)cc2)[C@@H]2CN(C(=O)Nc3ccc(OC)cc3)CCCCN12` [Compound 9, (8R,9R,10S)-10-(methoxymethyl)-N-(4-methoxyphenyl)-9-(4-(phenylethynyl)phenyl)-1,6-diazabicyclo[6.2.0]decane-6-carboxamide], the EC50 in test [1] worked out at 0.0504 µM.

As for `O=C(Nc1cccc(F)c1)N1CCCCN2[C@H](CO)[C@H](c3ccc(C#Cc4cccnc4)cc3)[C@@H]2C1` [Compound 10, (8R,9R,10S)-N-(3-fluorophenyl)-10-(hydroxymethyl)-9-(4-(pyridin-3-ylethynyl)phenyl)-1,6-diazabicyclo[6.2.0]decane-6-carboxamide], the EC50 in test [1] amounted to 0.493 µM. For `COc1ccc(NC(=O)N2CCCCN3[C@H](CO)[C@H](c4ccc(C#Cc5ccccc5)cc4)[C@]3(CO)C2)cc1` [Compound 11, (8R,9S,10S)-8,10-bis(hydroxymethyl)-N-(4-methoxyphenyl)-9-(4-(phenylethynyl)phenyl)-1,6-diazabicyclo[6.2.0]decane-6-carboxamide], the EC50 in test [1] is 1.69 µM.

Regarding `COc1ccc(NC(=O)N2CCCCN3[C@H](CO)[C@H](c4ccc(C#Cc5ccccc5C#N)cc4)[C@@H]3C2)cc1` [Compound 12, (8R,9R,10S)-9-(4-((2-cyanophenyl)ethynyl)phenyl)-10-(hydroxymethyl)-N-(4-methoxyphenyl)-1,6-diazabicyclo[6.2.0]decane-6-carboxamide], the EC50 in test [1] stood at 0.213 µM. On the same count and under the same terms, the same measure for `COc1ccc(NC(=O)N2CCCCN3[C@@H](CO)[C@H](c4ccc(C#Cc5ccccn5)cc4)[C@@H]3C2)cc1` [Compound 13, (8R,9R,10R)-10-(hydroxymethyl)-N-(4-methoxyphenyl)-9-(4-(pyridin-2-ylethynyl)phenyl)-1,6-diazabicyclo[6.2.0]decane-6-carboxamide]: 0.646 µM.

As to `CN(C[C@@H]1[C@H](c2ccc(C#Cc3ccccc3)cc2)[C@@H]2CN(C(=O)Nc3ccc(OC4CC4)cc3)CCCCN12)S(C)(=O)=O` [Compound 14, (8R,9R,10S)-N-(4-cyclopropoxyphenyl)-10-((N-methylmethylsulfonamido)methyl)-9-(4-(phenylethynyl)phenyl)-1,6-diazabicyclo[6.2.0]decane-6-carboxamide], the concentration giving a half-maximal response (EC50) in test [2] (setting [3]) was 0.037 µM; in test [1], 0.0185 µM. For `COc1ccc(NC(=O)N2CCCCN3C[C@H](c4ccc(C#Cc5ccccc5)cc4)[C@@H]3C2)cc1` [Compound 16], in that order: 0.193 µM and 0.077 µM. `COc1ccc(NC(=O)N2CCCCN3[C@H](CN4CCC4)[C@H](c4ccc(C#Cc5ccccc5)cc4)[C@@H]3C2)cc1` [Compound 17, (8R,9S,10S)-10-(azetidin-1-ylmethyl)-N-(4-methoxyphenyl)-9-(4-(phenylethynyl)phenyl)-1,6-diazabicyclo[6.2.0]decane-6-carboxamide] returned an EC50 in test [1] of 0.442 µM.

In test [1], `COc1ccc(NC(=O)N2CCCCN3[C@H](CO)[C@H](c4ccc(C#Cc5ccccc5)cc4)[C@@H]3C2)cc1` [Compound 18, (8R,9R,10S)-10-(hydroxymethyl)-N-(4-methoxyphenyl)-9-(4-(phenylethynyl)phenyl)-1,6-diazabicyclo[6.2.0]decane-6-carboxamide] showed an EC50 of 0.0289 µM. Same read-out and setting: the same measure for `OC[C@@H]1[C@H](c2ccc(C#Cc3ccccc3)cc2)[C@@H]2CN(c3nc4ccccc4s3)CCCCN12` [Compound 19, ((8R,9R,10S)-6-(benzo[d]thiazol-2-yl)-9-(4-(phenylethynyl)phenyl)-1,6-diazabicyclo[6.2.0]decan-10-yl)methanol]: 3.94 µM. Regarding `COc1ccc(NC(=O)N2CCCCCN3[C@H](CO)[C@H](c4ccc(C#Cc5ccccc5)cc4)[C@@H]3C2)cc1` [Compound 20, (9R,10R,11S)-11-(hydroxymethyl)-N-(4-methoxyphenyl)-10-(4-(phenylethynyl)phenyl)-1,7-diazabicyclo[7.2.0]undecane-7-carboxamide], the EC50 in test [2] (setting [3]) is 0.157 µM; in test [1], 0.169 µM.

Molecule `COc1ccc(NC(=O)N2CCCN3[C@H](CO)[C@H](c4ccc(C#Cc5ccccc5)cc4)[C@@H]3C2)cc1` [Compound 21, (7R,8R,9S)-9-(hydroxymethyl)-N-(4-methoxyphenyl)-8-(4-(phenylethynyl)phenyl)-1,5-diazabicyclo[5.2.0]nonane-5-carboxamide] had an EC50 in test [1] of 1.75 µM. The molecule `CCc1nc(N)nc(N)c1-c1ccc(Cl)cc1` [Pyrimethamine (Pyr), Pyrimethamine, reference compound] came in with an EC50 in test [2] of 0.263 µM.
